Values after ≈ are worked out from the molar mass of the structure shown.
What was measured:
Format in all cases: functional
Staphylococcus aureus [1] = test: In vitro antimicrobial activity against Staphylococcus aureus GC 2220 strain; settings: Staphylococcus aureus; read-out: MIC
Citrobacter freundii = test: In vitro antimicrobial activity against Citrobacter freundii GC 2211 strain; settings: Citrobacter freundii; read-out: MIC
Enterobacter cloacae = test: In vitro antimicrobial activity against Enterobacter cloacae GC 2209 strain
Mus musculus [2] = test: Tested for oral activity against Staphylococcus aureus smith infection in mice after single subcutaneous dose(SSC)
Mus musculus [3] = test: Tested for oral activity against Staphylococcus aureus smith infection in mice after single oral dose(SOD); settings: Mus musculus, po; read-out: ED50
Escherichia coli [4] = test: In vitro antimicrobial activity against Escherichia coli GC 1792 strain; settings: Escherichia coli; read-out: MIC
Enterococcus faecalis = test: In vitro antimicrobial activity against Enterococcus faecalis GC 842 strain
Staphylococcus aureus [5] = test: In vitro antimicrobial activity against Staphylococcus aureus ATCC 29213 strain
[6] = test system: Stenotrophomonas maltophilia; test: In vitro antimicrobial activity against Xanthomonas maltophilia GC 562 strain
Morganella morganii = test: In vitro antimicrobial activity against Morganella morganii GC 2213 strain; settings: Morganella morganii; read-out: MIC
[7] = Ratio of ED50 of single oral dose to ED50 of single subcutaneous dose against Staphylococcus aureus smith infection in mice
Escherichia coli [8] = test: In vitro antimicrobial activity against Escherichia coli GC 2205 strain
Enterococcus faecium = test: In vitro antimicrobial activity against Enterococcus faecium GC 1182 strain
[9] = test system: Acinetobacter calcoaceticus; test: In vitro antimicrobial activity against Acinetobacter calcoaceticus GC 756 strain
Escherichia coli [10] = test: In vitro antimicrobial activity against Escherichia coli ATCC 25922 strain
Pseudomonas aeruginosa [11] = test: In vitro antimicrobial activity against Pseudomonas aeruginosa ATCC 27853 strain; settings: Pseudomonas aeruginosa, ATCC 27853; read-out: MIC
Pseudomonas aeruginosa [12] = test: In vitro antimicrobial activity against Pseudomonas aeruginosa GC 1544 strain; settings: Pseudomonas aeruginosa; read-out: MIC
Mus musculus [13] = species: Mus musculus; test: animal or person; settings: Mus musculus, po; read-out: ED50
Description: Tested for oral activity against Escherichia coli #311 infection in mice after single oral dose(SOD)

Mus musculus [14] = species: Mus musculus; test: animal or person; settings: Mus musculus; read-out: ED50
Description: Tested for oral activity against Escherichia coli #311 infection in mice after single subcutaneous dose(SSC)

[15] = Enterococcus faecalis, read-out: MIC
[16] = Enterococcus faecium, read-out: MIC
[17] = Acinetobacter calcoaceticus, read-out: MIC

C[C@@H](N)C(=O)NC[C@H]1COC[C@H]1SC1=C(C(=O)O)N2C(=O)[C@H]([C@@H](C)O)C2[C@H]1C (stereo not given in full)
MIC (Staphylococcus aureus [1]): 32 mg/L (≈ 77.4 µM) | MIC (Citrobacter freundii): 2 mg/L (≈ 4.84 µM) | MIC (Enterobacter cloacae): 0.25 mg/L (≈ 0.605 µM) | ED50 (Mus musculus [2]; Mus musculus, read-out: ED50): 0.11 mg/kg | ED50 (Mus musculus [3]): 4 mg/kg | MIC (Escherichia coli [4]): < 0.06 mg/L | MIC (Enterococcus faecalis; [15]): 2 mg/L (≈ 4.84 µM) | MIC (Staphylococcus aureus [5]): 0.5 mg/L (≈ 1.21 µM) | MIC [6]: > 128 mg/L | MIC (Morganella morganii): 1 mg/L (≈ 2.42 µM) | Ratio [7]: 36 | MIC (Escherichia coli [8]): < 0.06 mg/L | MIC (Enterococcus faecium; [16]): 128 mg/L (≈ 310 µM) | MIC [9, 17]: 8 mg/L (≈ 19.3 µM) | MIC (Escherichia coli [10]): < 0.06 mg/L | MIC (Pseudomonas aeruginosa [11]): 8 mg/L (≈ 19.3 µM) | MIC (Pseudomonas aeruginosa [12]): 32 mg/L (≈ 77.4 µM)

C[C@H]1C(S[C@@H]2COC[C@@H]2CN)=C(C(=O)O)N2C(=O)[C@H]([C@@H](C)O)C12 (stereo not given in full)
MIC (Staphylococcus aureus [1]): 16 mg/L (≈ 46.7 µM) | MIC (Citrobacter freundii): 0.5 mg/L (≈ 1.46 µM) | MIC (Enterobacter cloacae): 0.12 mg/L (≈ 0.35 µM) | MIC (Escherichia coli [4]): 0.12 mg/L (≈ 0.35 µM) | MIC (Enterococcus faecalis; [15]): 8 mg/L (≈ 23.4 µM) | MIC (Staphylococcus aureus [5]): 0.12 mg/L (≈ 0.35 µM) | MIC [6]: > 128 mg/L | MIC (Morganella morganii): 2 mg/L (≈ 5.84 µM) | MIC (Escherichia coli [8]): 0.12 mg/L (≈ 0.35 µM) | MIC (Enterococcus faecium; [16]): > 128 mg/L | MIC [9, 17]: 16 mg/L (≈ 46.7 µM) | MIC (Escherichia coli [10]): 0.12 mg/L (≈ 0.35 µM) | MIC (Pseudomonas aeruginosa [11]): 16 mg/L (≈ 46.7 µM) | MIC (Pseudomonas aeruginosa [12]): 32 mg/L (≈ 93.5 µM)

C[C@@H](N)C(=O)NC[C@@H]1COC[C@@H]1SC1=C(C(=O)O)N2C(=O)[C@H]([C@@H](C)O)C2[C@H]1C (stereo not given in full)
MIC (Staphylococcus aureus [1]): 8 mg/L (≈ 19.3 µM) | MIC (Citrobacter freundii): 4 mg/L (≈ 9.67 µM) | MIC (Enterobacter cloacae): 1 mg/L (≈ 2.42 µM) | ED50 (Mus musculus [2]; Mus musculus, read-out: ED50): 0.11 mg/kg | ED50 (Mus musculus [3]): 4.5 mg/kg | MIC (Escherichia coli [4]): 0.25 mg/L (≈ 0.605 µM) | MIC (Enterococcus faecalis; [15]): 16 mg/L (≈ 38.7 µM) | MIC (Staphylococcus aureus [5]): 0.5 mg/L (≈ 1.21 µM) | MIC [6]: > 128 mg/L | MIC (Morganella morganii): 2 mg/L (≈ 4.84 µM) | Ratio [7]: 41 | MIC (Escherichia coli [8]): 0.25 mg/L (≈ 0.605 µM) | MIC (Enterococcus faecium; [16]): > 128 mg/L | MIC [9, 17]: 16 mg/L (≈ 38.7 µM) | MIC (Escherichia coli [10]): 0.25 mg/L (≈ 0.605 µM) | MIC (Pseudomonas aeruginosa [11]): 64 mg/L (≈ 155 µM) | MIC (Pseudomonas aeruginosa [12]): 128 mg/L (≈ 310 µM)

CC(C)[C@@H](N)C(=O)NC[C@H]1OCC[C@H]1SC1=C(C(=O)O)N2C(=O)[C@H]([C@@H](C)O)C2[C@H]1C (stereo not given in full)
MIC (Staphylococcus aureus [1]): 8 mg/L (≈ 18.1 µM) | MIC (Citrobacter freundii): 1 mg/L (≈ 2.26 µM) | MIC (Enterobacter cloacae): 0.5 mg/L (≈ 1.13 µM) | ED50 (Mus musculus [2]; Mus musculus, read-out: ED50): 0.07 mg/kg | ED50 (Mus musculus [3]): 0.1 mg/kg | MIC (Escherichia coli [4]): 0.12 mg/L (≈ 0.272 µM) | MIC (Enterococcus faecalis; [15]): 2 mg/L (≈ 4.53 µM) | MIC (Staphylococcus aureus [5]): 0.25 mg/L (≈ 0.566 µM) | MIC [6]: > 128 mg/L | MIC (Morganella morganii): 1 mg/L (≈ 2.26 µM) | Ratio [7]: 1.4 | MIC (Escherichia coli [8]): ≤ 0.06 mg/L | ED50 (Mus musculus [13]): 0.31 mg/kg | MIC (Enterococcus faecium; [16]): > 128 mg/L | MIC [9, 17]: 16 mg/L (≈ 36.2 µM) | MIC (Escherichia coli [10]): ≤ 0.06 mg/L | MIC (Pseudomonas aeruginosa [11]): 32 mg/L (≈ 72.5 µM) | ED50 (Mus musculus [14]): 0.29 mg/kg | MIC (Pseudomonas aeruginosa [12]): 128 mg/L (≈ 290 µM)

C[C@@H](O)[C@H]1C(=O)N2C(C(=O)O)=C(S[C@@H]3CCO[C@@H]3CN)[C@H](C)[C@H]12
MIC (Staphylococcus aureus [1]): 1 mg/L (≈ 2.92 µM) | MIC (Citrobacter freundii): ≤ 0.06 mg/L | MIC (Enterobacter cloacae): ≤ 0.06 mg/L | ED50 (Mus musculus [2]; Mus musculus, read-out: ED50): 0.04 mg/kg | ED50 (Mus musculus [3]): 0.88 mg/kg | MIC (Escherichia coli [4]): ≤ 0.06 mg/L | MIC (Enterococcus faecalis): 0.5 mg/L (≈ 1.46 µM) | MIC (Staphylococcus aureus [5]): ≤ 0.06 mg/L | MIC [6]: > 128 mg/L | MIC (Morganella morganii): 0.5 mg/L (≈ 1.46 µM) | Ratio [7]: 22 | MIC (Escherichia coli [8]): ≤ 0.06 mg/L | ED50 (Mus musculus [13]): 3.8 mg/kg | MIC (Enterococcus faecium): 64 mg/L (≈ 187 µM) | MIC [9, 17]: 2 mg/L (≈ 5.84 µM) | MIC (Escherichia coli [10]): ≤ 0.06 mg/L | MIC (Pseudomonas aeruginosa [11]): 8 mg/L (≈ 23.4 µM) | ED50 (Mus musculus [14]): 0.34 mg/kg | MIC (Pseudomonas aeruginosa [12]): 16 mg/L (≈ 46.7 µM)

C[C@H]1C(SC2COC(CN)C2)=C(C(=O)O)N2C(=O)[C@H]([C@@H](C)O)C12 (stereo in doubt; trans)
MIC (Staphylococcus aureus [1]): 8 mg/L (≈ 23.4 µM) | MIC (Citrobacter freundii): 0.06 mg/L (≈ 0.175 µM) | MIC (Enterobacter cloacae): < 0.06 mg/L | ED50 (Mus musculus [2]): 0.11 mg/kg | ED50 (Mus musculus [3]): 1.7 mg/kg | MIC (Escherichia coli [4]): 0.06 mg/L (≈ 0.175 µM) | MIC (Enterococcus faecalis; [15]): 2 mg/L (≈ 5.84 µM) | MIC (Staphylococcus aureus [5]): < 0.06 mg/L | MIC [6]: > 128 mg/L | MIC (Morganella morganii): 0.25 mg/L (≈ 0.73 µM) | Ratio [7]: 16 | MIC (Escherichia coli [8]): < 0.06 mg/L | ED50 (Mus musculus [13]): 3.7 mg/kg | MIC (Enterococcus faecium; [16]): 128 mg/L (≈ 374 µM) | MIC [9]: 1 mg/L (≈ 2.92 µM) | MIC (Escherichia coli [10]): < 0.06 mg/L | MIC (Pseudomonas aeruginosa [11]): 4 mg/L (≈ 11.7 µM) | ED50 (Mus musculus [14]): 0.27 mg/kg | MIC (Pseudomonas aeruginosa [12]): 8 mg/L (≈ 23.4 µM)
